Reference: patent publication US9102648B1, “Bioavailable diacylhydrazine ligands for modulating the expression of exogenous genes via an ecdysone receptor complex” (Intrexon Corporation, priority 2003, dated 2015)
Read-outs that look alike come from different tables or passages of the source.

Experiments:
[1] = target: GAL4 DBD-CfEcR(DEF)/VP16AD-MmRXRE (Choristoneura fumiferana, UniProt O77240); test: 13B3 Assay (CHO stable cell line, luciferase reporter); conditions: for Fold Induction, 13B3 Assay, 33 uM: 33 uM ligand; for Fold Induction, 13B3 Assay, 33 uM / Fold Induction, 13B3 Assay, 3.3 uM: RLU ligand treated / RLU DMSO treated cells; for Fold Induction, 13B3 Assay, 3.3 uM: 3.3 uM ligand; for 13B3 assay Rel Max FI: maximum fold induction at any concentration relative to that of GS-E ligand, CHO 13B3 cells; for fold induction at 3.3 µM: read-out: Fold Induction, 13B3 Assay, 3.3 uM; for fold induction at 33 µM: read-out: Fold Induction, 13B3 Assay, 33 uM
Excerpt: GAL4 DBD-CfEcR(DEF)/VP16AD-MmRXRE:
The wild-type D, E, and F domains from spruce budworm Choristoneura fumiferana EcR (“CfEcR-DEF”; SEQ ID NO: 1) were fused to a GALA DNA binding domain (“Gal4DBD1-147”; SEQ ID NO: 2) and placed under the control of the SV40e promoter of pM vector (PT3119-5, Clontech, Palo Alto, Calif.). The D and E domains from Mus Musculus RXR (“MmRXR-DE”; SEQ ID NO: 11) were fused to the transactivation domain from VP16 (“VP16AD”; SEQ ID NO: 6) and placed under the control of the SV40e promoter of the pVP16 vector (PT3127-5, Clontech, Palo Alto, Calif.).
CHO cells were transiently transfected with transcription cassettes for GAL4 DBD-CJEcR(DEF) and for VP16AD-MmRXRE controlled by SV40e promoters. Stably transfected cells were selected using Hygromycin. Individually isolated CHO cell clones were transiently transfected with a GALA RE-luciferase reporter (pFR-Luc, Stratagene, La Jolla, Calif.). The 13B3 clone was selected using Zeocin.
Cells were trypsinized and diluted to a concentration of 2.5×10^4 cells mL. 100 μL of cell suspension was placed in each well of a 96 well plate and incubated at 37° C. under 5% CO2 for 24 h. Ligand stock solutions were prepared in DMSO and diluted 300 fold for all treatments. Dose response testing consisted of 8 concentrations ranging from 33 μM to 0.01 μM.
Luciferase reporter gene expression was measured 48 h after cell treatment using Bright-Glo™ Luciferase Assay System from Promega (E2650). Luminescence was detected at room temperature using a Dynex MLX microtiter plate luminometer.
Each assay was conducted in two separate wells, and the two values were averaged. Fold inductions were calculated by dividing relative light units (“RLU”) in ligand treated cells with RLU in DMSO treated cells. EC50s were calculated from dose response data using a three-parameter logistic model.

[2] = target: T1, Bombyx mori EcR (VP16 fusion, CVBE switch construct) (Bombyx mori, UniProt P49881); test: Z3 Assay (HEK-293 cells with CVBE and 6XEcRE LacZ, β-galactosidase reporter); conditions: for Fold Induction, Z3 Assay, 3.3 uM: 3.3 uM ligand; for Fold Induction, Z3 Assay, 3.3 uM / Fold Induction, Z3 Assay, 33 uM: ligand treated / DMSO treated cells; for Fold Induction, Z3 Assay, 33 uM: 33 uM ligand; for Z3 assay Rel Max FI: maximum fold induction at any concentration relative to that of GS-E ligand; for fold induction at 3.3 µM: HEK293, read-out: Fold Induction, Z3 Assay, 3.3 uM; for fold induction at 33 µM: HEK293, read-out: Fold Induction, Z3 Assay, 33 uM
T1 sequence (P49881 86-606): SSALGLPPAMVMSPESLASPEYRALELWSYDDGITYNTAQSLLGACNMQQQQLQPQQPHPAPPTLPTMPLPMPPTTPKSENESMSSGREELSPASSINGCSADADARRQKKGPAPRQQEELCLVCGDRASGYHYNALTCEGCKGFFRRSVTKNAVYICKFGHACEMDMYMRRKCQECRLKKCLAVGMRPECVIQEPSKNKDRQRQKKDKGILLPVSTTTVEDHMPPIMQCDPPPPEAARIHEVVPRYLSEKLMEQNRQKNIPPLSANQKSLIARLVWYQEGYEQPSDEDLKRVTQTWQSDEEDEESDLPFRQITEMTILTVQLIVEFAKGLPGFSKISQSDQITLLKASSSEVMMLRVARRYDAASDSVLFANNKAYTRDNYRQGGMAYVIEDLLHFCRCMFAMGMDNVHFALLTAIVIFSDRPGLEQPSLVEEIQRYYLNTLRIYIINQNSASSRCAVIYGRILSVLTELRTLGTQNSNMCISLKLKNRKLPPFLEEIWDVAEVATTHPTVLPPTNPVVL
T1 sequence (P19793 1-462 partner): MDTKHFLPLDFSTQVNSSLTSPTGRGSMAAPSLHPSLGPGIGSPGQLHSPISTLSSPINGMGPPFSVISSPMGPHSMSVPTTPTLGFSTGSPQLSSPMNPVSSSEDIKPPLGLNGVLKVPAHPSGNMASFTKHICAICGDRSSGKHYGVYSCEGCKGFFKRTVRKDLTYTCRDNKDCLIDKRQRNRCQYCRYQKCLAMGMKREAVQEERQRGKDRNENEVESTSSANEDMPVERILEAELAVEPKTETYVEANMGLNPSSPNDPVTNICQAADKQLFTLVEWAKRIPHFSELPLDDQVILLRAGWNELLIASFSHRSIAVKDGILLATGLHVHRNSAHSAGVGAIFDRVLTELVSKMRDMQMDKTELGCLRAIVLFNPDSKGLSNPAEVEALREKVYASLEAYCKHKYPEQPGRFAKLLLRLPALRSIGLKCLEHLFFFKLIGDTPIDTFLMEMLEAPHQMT

[3] = read-out: Z3 assay EC50, HEK-293 Z3 cells, β-galactosidase reporter, average of two wells
[4] = read-out: 13B3 EC50, CHO 13B3 stable cell line, luciferase reporter, 48 h, average of two wells

| Structure (SMILES) | Fold Induction, 13B3 Assay, 33 uM ([1]; average of two wells) | Fold Induction, Z3 Assay, 3.3 uM ([2]; average of two wells) | Fold Induction, Z3 Assay, 33 uM ([2]; average of two wells) | Z3 assay Rel Max FI ([2]; HEK-293 Z3 cells) | EC50 [2, 3] | Fold Induction, 13B3 Assay, 3.3 uM ([1]; average of two wells) | 13B3 assay Rel Max FI [1] | EC50 [1, 4] | EC50 [1] | fold induction at 3.3 µM [1] | EC50 [2] | fold induction at 3.3 µM [2] | fold induction at 33 µM [2] | fold induction at 33 µM [1] |
| --- | --- | --- | --- | --- | --- | --- | --- | --- | --- | --- | --- | --- | --- | --- |
| CC(=O)Oc1cccc(C(=O)NN(C(=O)c2cc(C)cc(C)c2)C(C)(C)C)c1C [RG-100749] | 288 | 874 | 145 | 0.951 | 2690 nM |  |  |  |  |  |  |  |  |  |
| Cc1cc(C)cc(C(=O)N(NC(=O)c2ccc3c(c2C)CCCO3)C(C)(C)C)c1 [RG-102408] |  | 249 |  | 1.114 | 54 nM | 25 | 0.662 | 91 nM |  |  |  |  |  |  |
| COc1cccc(C(=O)NN(C(=O)c2cc(C)cc(C)c2)C(C)(C)C)c1CS(C)(=O)=O [RG-115408, 2-methanesulfonylmethyl-3-methoxy-benzoic acid N′-tert-butyl-N′-(3,5-dimethyl-benzoyl)-hydrazide] |  |  |  | 0.01 |  |  | 0 |  | > 50000 nM | 1 | > 50000 nM | 1 | 3 |  |
| CC(C)(C)N(NC(=O)c1ccc(Br)cc1)C(=O)c1cc(Cl)cc(Cl)c1 [RG-101759] | 137 | 796 | 158 | 0.639 | 331 nM | 623 | 0.336 | 877 nM |  |  |  |  |  |  |
| Cc1ccc(C(=O)NN(C(=O)c2cc(C)cc(C)c2)C(C)(C)C)cc1 [RG-101542] | 439 | 1151 | 324 | 0.793 | 324 nM |  |  |  |  |  |  |  |  |  |
| CCc1ccccc1C(=O)N(NC(=O)c1cccc(OC)c1C)C(C)(C)C [RG-101062] | 319 | 1127 | 391 | 0.992 | 2570 nM |  |  |  |  |  |  |  |  |  |
| COc1cccc(C(=O)NN(C(=O)c2cc(C)cc(C)c2)C(C)(C)C)c1CCl [RG-115490, 3,5-dimethyl-benzoic acid N-tert-butyl-N′-(2-chloromethyl-3-methoxy-benzoyl)-hydrazide] |  |  |  | 0.44 |  |  | 1.01 |  | > 50000 nM | 2 | 6350 nM | 123 | 814 | 844 |
| COc1cc(C(=O)N(NC(=O)c2ccc3c(c2C)OCCO3)C(C)(C)C)c([N+](=O)[O-])c(OC)c1C [RG-115609, 3,5-dimethoxy-4-methyl-2-nitrobenzoic acid N-t-butyl-N′-(5-methy-1benzo-1,4-dioxan-6-carbonyl)-hydrazide] | 4217 | 90 | 383 | 0.625 | 1390 nM | 558 | 0.883 | 13800 nM |  |  |  |  |  |  |
| CCc1c(OC)cccc1C(=O)NN(C(=O)c1cc(C)cc(C)c1)C(C)(C)C#N [RG-115043] | 547 | 466 | 1588 | 0.943 | 178 nM | 835 | 0.852 | 2670 nM |  |  |  |  |  |  |
| COc1ccc(C(=O)NN(C(=O)c2cc(Cl)cc(Cl)c2)C(C)(C)C)cc1 [RG-101376] | 7393 | 1293 | 415 | 0.777 | 537 nM | 25656 | 0.654 | 1360 nM |  |  |  |  |  |  |
| COc1cccc(C(=O)NN(C(=O)c2cc(C)cc(C)c2)C(C)(C)C)c1CSC [RG-115358, 3-Methoxy-2-methylsulfanylmethyl-benzoic acid N′-tert-butyl-N′-(3,5-dimethyl-benzoyl)-hydrazide] |  |  |  | 0.48 |  |  | 0.20 |  | > 50000 nM | 1 | 9450 nM | 33 | 769 | 584 |
| CCc1ccc(C(=O)NN(C(=O)c2cc(C)c(Cl)c(C)c2)C(C)(C)C)cc1 [RG-101862] | 293 | 717 | 250 | 0.866 | 269 nM | 3279 | 0.861 | 1050 nM |  |  |  |  |  |  |
| Cc1c(C(=O)NN(C(=O)c2cc(F)cc(C(F)(F)F)c2)C(C)(C)C)ccc2c1OCCO2 [RG-115169] |  | 443 |  | 0.956 | 347 nM | 405 | 0.618 | 497 nM |  |  |  |  |  |  |
| CCc1c(C(=O)NN(C(=O)c2cc(F)c(Cl)cc2Cl)C(C)(C)C)ccc2c1OCCO2 [RG-115684] | 151 |  | 498 |  |  |  |  |  |  |  |  |  |  |  |
| CCc1c(OC)cccc1C(=O)NN(C(=O)c1cc(OC)c(OC(C)=O)c(OC)c1)C(C)(C)C [RG-115191] |  | 386 |  | 0.934 | 2400 nM | 3 | 1.513 | > 50000 nM |  |  |  |  |  |  |
| CCc1c(OC)cccc1C(=O)NN(C(=O)c1nc(SC)cnc1Cl)C(C)(C)C [RG-115716] |  |  | 66 |  |  | 3 |  |  |  |  |  |  |  |  |
| COc1cc(F)ccc1C(=O)N(NC(=O)c1cccc(OC)c1C)C(C)(C)C [RG-100524] | 1211 | 991 | 146 | 1.002 | 263 nM |  |  |  |  |  |  |  |  |  |
| Cc1c(C(=O)NN(C(=O)c2cccc(F)c2)C(C)(C)C)ccc2c1OCCO2 [RG-115350] |  | 499 |  | 0.935 | 309 nM | 450 | 0.711 | 795 nM |  |  |  |  |  |  |
| CCc1c(OC)cccc1C(=O)NN(C(=O)c1cc(C)cc(C=NO)c1)C(C)(C)C [RG-115625] | 715 | 265 | 1559 | 0.950 | 389 nM | 3 | 0.931 | 25300 nM |  |  |  |  |  |  |
